TGI data for 14 molecules are collected here from PubChem BioAssay (NCI).

Structures are written as SMILES.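 Protocol summary: plate cells (96-well), add compound at 5 concentrations, incubate 48 h, interpolate endpoints linearly. Definition used: TGI = concentration required for complete inhibition of growth.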

Holding throughout (assay): growth of human tumour cells (NCI), 48 h
The subject of experiment [1] is A549 NSCLC.
Experiment [2] concerns CCRF-CEM leukemia.
Experiment [3] relates to HOP-92 NSCLC.
Experiment [4] deals with KM12 colon.
Experiment [5] concerns MDA-MB-231 breast.
The subject of experiment [6] is MOLT-4 leukemia.
The test system of experiment [7] is OVCAR-4 ovarian.
Experiment [8] has as its system U251 CNS.
Experiment [9] relates to UACC-257 melanoma.

With `O=[N+]([O-])/C(Cl)=C(\NCCO)C(Cl)=C(Cl)Cl`, the TGI was above 100 µM in experiment [1]; 52.1 µM in experiment [2]; above 100 µM in experiment [3]; above 100 µM in [4]; above 90.7 µM in [5]; 63.6 µM in experiment [6]. Besides, the TGI in [7], in experiment [8] and in experiment [9] was above 100 µM each time.
With `COc1ccc(-c2c(/C=N/OCC(=O)O)c3sc4ccccc4n3c2/C=N/OCC(=O)O)cc1`, the TGI in [1], in [2], in [3], in experiment [4], in [5] and in experiment [6] was above 50 µM in each case. The TGI in experiment [7], in [8] and in experiment [9] was above 50 µM each time.
For `CC1=NN(c2ccccc2)C(=O)/C1=C\c1c(C)[nH]n(-c2ccccc2)c1=O`, the TGI was above 100 µM in experiment [1]; above 100 µM in experiment [2]; 90.5 µM in experiment [3]; above 100 µM in experiment [4]; above 100 µM in experiment [5]; above 100 µM in experiment [6]. For the same molecule, the TGI in experiment [7], in experiment [8] and in experiment [9] was above 100 µM throughout.
Take `COc1ccc(-c2nc(-c3cnccn3)n(C/C=C/c3ccccc3)n2)cc1`: the TGI is above 100 µM in [1]; above 100 µM in experiment [2]; 37 µM in experiment [3]; above 100 µM in [4]; above 100 µM in [5]; above 100 µM in experiment [6]. For the same molecule, the TGI in experiment [7] was 98.6 µM; in experiment [8], above 100 µM; in experiment [9], above 100 µM.
With `N#Cc1nc(CN2C(=O)c3ccccc3C2=O)oc1N`, the TGI in experiment [1], in experiment [2], in experiment [3], in experiment [4], in [5] and in experiment [6] was above 100 µM in each case. Besides, the TGI in [7], in experiment [8] and in experiment [9] was above 100 µM throughout.
For `Cc1oc(N)c(S(=O)(=O)/C(C#N)=C/c2ccccc2[N+](=O)[O-])c1C`, the TGI in experiment [1] was 59.7 µM; in [2] it was 68.5 µM; in experiment [3] it was above 100 µM; in experiment [4], 73.2 µM; in experiment [5], 82.6 µM; in [6], 62.5 µM. Besides, the values for the TGI in experiment [7], in experiment [8] and in experiment [9] were above 100 µM, 36.3 µM and above 100 µM, respectively.
Consider `CCOC(=O)c1cnc2n(c1=O)[C@H]1CCCC[C@@H]1N2`, for which the TGI in [1], in experiment [2], in experiment [3], in [4], in [5] and in [6] was above 100 µM in each case. Also, the TGI in [7], in experiment [8] and in experiment [9] was above 100 µM each time.
Take `C[C@@H]1C[C@@H]2OC(=O)[C@]3(C)[C@H]2[C@@H](OC3(C)O)[C@]2(C)C(=O)C=C[C@@H]12` (stereo partly specified): the TGI in experiment [1] was above 100 µM; in experiment [2], 31.8 µM; in experiment [3] it was 38.9 µM; in experiment [4], 58.7 µM; in experiment [5], 64.5 µM; in experiment [6] it was 39.7 µM. The TGI was 35.9 µM in experiment [7], above 100 µM in experiment [8] and 50.2 µM in experiment [9].
For `CC1(C)Cc2ccccc2C(C)(Cl)C(=O)N1` (stereo unspecified), the TGI in experiment [1], in experiment [2], in [3], in experiment [4], in experiment [5] and in [6] was above 10 µM in each case. For the same molecule, the TGI in experiment [7], in [8] and in [9] was above 10 µM throughout.
`O=C1CC(c2cccc([N+](=O)[O-])c2)C2(C(=O)NC(=S)NC2=O)C(c2cccc([N+](=O)[O-])c2)C1` (stereo unspecified): the TGI is above 100 µM in experiment [1]; 97.1 µM in experiment [2]; above 100 µM in experiment [3]; above 100 µM in experiment [4]; 62.4 µM in experiment [5]; above 100 µM in [6]. Also, the figures for the TGI in [7], in experiment [8] and in [9] were above 100 µM, 81.3 µM and above 100 µM, respectively.
For the molecule `C=CCN1C(=O)C[C@H](Cc2ccccc2)NC(=O)C[C@H](Cc2ccccc2)N(CC=C)C(=O)C[C@H](Cc2ccccc2)NC(=O)C[C@@H]1Cc1ccccc1`, the TGI was above 100 µM in [1]; above 100 µM in experiment [2]; 80.4 µM in experiment [3]; above 100 µM in experiment [4]; above 100 µM in [5]; 6.91 µM in experiment [6]. Also, the TGI in [7] is 72 µM; in experiment [8], above 100 µM; in [9] it was above 100 µM.
In the case of `Cc1c2oc(=O)c(C#N)cc2c2ccccn12`, the TGI in experiment [1], in experiment [2], in [3], in experiment [4], in experiment [5] and in [6] was above 100 µM throughout. Also, the TGI in [7], in [8] and in experiment [9] was above 100 µM each time.
Turning to `CC(Cl)(CCC(Cl)C(C)(C)Cl)C(=O)CBr` (stereo unspecified), the TGI in experiment [1] was 43 µM; in experiment [2] it was above 21.5 µM; in experiment [3], 20.8 µM; in experiment [4], 29.6 µM; in experiment [5] it was 23.9 µM; in experiment [6], 3.81 µM. Further, the TGI in experiment [7] stood at 7.46 µM; in experiment [8], 29.8 µM; in experiment [9], 25.5 µM.
As to `COc1ccc(N=C(C)C(C)=Nc2ccc(OC)cc2)cc1`, the TGI in experiment [1], in experiment [2], in [3], in experiment [4], in [5] and in experiment [6] was above 100 µM throughout. For the same molecule, the TGI in experiment [7], in experiment [8] and in [9] was above 100 µM each time.
